The source of these data is US20240239767A1 (AstraZeneca AB, priority 2022, published 2024).

The target in assay [1] is T1, PCSK9 (Homo sapiens, UniProt Q8NBP7, G670E/V474I). In words: cell-based.
Target sequence in this assay (Q8NBP7 31-152): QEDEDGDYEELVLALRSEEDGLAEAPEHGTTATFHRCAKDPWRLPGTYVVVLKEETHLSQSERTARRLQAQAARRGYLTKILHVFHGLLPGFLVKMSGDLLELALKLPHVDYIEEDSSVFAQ
Target sequence in this assay (Q8NBP7 153-692 V474I/G670E): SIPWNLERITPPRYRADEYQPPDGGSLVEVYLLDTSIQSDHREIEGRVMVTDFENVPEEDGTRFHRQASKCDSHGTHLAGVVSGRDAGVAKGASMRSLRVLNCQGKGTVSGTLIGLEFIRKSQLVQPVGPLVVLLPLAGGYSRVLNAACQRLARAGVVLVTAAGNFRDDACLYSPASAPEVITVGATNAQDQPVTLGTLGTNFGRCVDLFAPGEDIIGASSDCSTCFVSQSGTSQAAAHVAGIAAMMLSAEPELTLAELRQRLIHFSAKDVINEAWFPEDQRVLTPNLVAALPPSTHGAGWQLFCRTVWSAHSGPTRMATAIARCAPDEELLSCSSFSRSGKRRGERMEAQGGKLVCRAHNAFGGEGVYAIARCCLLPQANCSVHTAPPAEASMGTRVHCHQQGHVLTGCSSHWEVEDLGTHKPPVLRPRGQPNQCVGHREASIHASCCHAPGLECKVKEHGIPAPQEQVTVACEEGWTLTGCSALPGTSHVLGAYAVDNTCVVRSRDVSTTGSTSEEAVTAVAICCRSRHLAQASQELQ
From the text: This assay measures for PCSK9 antagonist activity based on a test compound's capacity to restore LDL-C uptake in HepG2 cells. The assay is based on exogenous PCSK9 and LDL-C complexed with a pH-sensitive dye. Outside the cells, at neutral pH, the pHrodo Red-LDL is dimly fluorescent but upon LDLR mediated endocytosis it fluoresces brightly. PCSK9 traffics the LDLR to intracellular degradation and reduces uptake of LDL-C. Inhibition of PCSK9 reduces LDLR degradation and the increased LDL-C uptake is quantified by fluorescence microscopy.
Cell medium: MEM supplemented with 10% FBS, 1× NEAA and Sodium Pyruvate
Assay medium: OptiMem supplemented with penicillin/streptomycin
Cells: HepG2 (ATCC #HB-8065)
Cryopreserved HepG2 cells were thawed in assay medium and centrifuged for 5 min at 250 g. Supernatant was discarded and the cell pellet resuspended in cell medium and counted with a Nucleocounter. Cells were again centrifuged 5 min at 250 g and the pellet was resuspended to 500000 cells/mL in assay medium. • 2. 20 μL of above cell mix was dispensed into black pclear TC treated 384 well plates with Multidrop Combi and left at room temperature for 20 minutes. • 3. Plates were incubated at 37° C., 5% CO2 for 24 h
Test compounds were prepared in concentration response in DMSO with a half-log dilution factor in DMSO in Echo 384 LDV plates starting at 10 mM. • 2. 30 nL of above test compounds were dispensed with Echo 655 to cells for a top concentration of 10 μM • 3. […] Plates were incubated at 37° C., 5% CO2 for 24 h
10 μL pHrodo Red-LDL in assay medium was dispensed to cells with Multidrop Combi for 6 μg/mL • 2. Plates were incubated at 37° C., 5% CO2 and imaged with the Incucyte S3 after 4 h and 24 h
Image data was processed using Incucyte 2021, a software to identify cells and red fluorescent intensity. Screener was used to further process data. Data was normalized as % effect of the signal between median values of the on-plate controls of DMSO and 100 nM Evolocumab according to the formula % effect=−100*(x−DMSO)/(Evolocumab−DMSO) where x equals the measured signal. Concentration response data of the normalized values were fitted using a four-parameter logistic fit.
In assay [2] the target is T1, PCSK9. The experiment in a line: biochemical.
Target sequence in this assay (Q8NBP7 with tags, fused parts or gaps V474I/G670E): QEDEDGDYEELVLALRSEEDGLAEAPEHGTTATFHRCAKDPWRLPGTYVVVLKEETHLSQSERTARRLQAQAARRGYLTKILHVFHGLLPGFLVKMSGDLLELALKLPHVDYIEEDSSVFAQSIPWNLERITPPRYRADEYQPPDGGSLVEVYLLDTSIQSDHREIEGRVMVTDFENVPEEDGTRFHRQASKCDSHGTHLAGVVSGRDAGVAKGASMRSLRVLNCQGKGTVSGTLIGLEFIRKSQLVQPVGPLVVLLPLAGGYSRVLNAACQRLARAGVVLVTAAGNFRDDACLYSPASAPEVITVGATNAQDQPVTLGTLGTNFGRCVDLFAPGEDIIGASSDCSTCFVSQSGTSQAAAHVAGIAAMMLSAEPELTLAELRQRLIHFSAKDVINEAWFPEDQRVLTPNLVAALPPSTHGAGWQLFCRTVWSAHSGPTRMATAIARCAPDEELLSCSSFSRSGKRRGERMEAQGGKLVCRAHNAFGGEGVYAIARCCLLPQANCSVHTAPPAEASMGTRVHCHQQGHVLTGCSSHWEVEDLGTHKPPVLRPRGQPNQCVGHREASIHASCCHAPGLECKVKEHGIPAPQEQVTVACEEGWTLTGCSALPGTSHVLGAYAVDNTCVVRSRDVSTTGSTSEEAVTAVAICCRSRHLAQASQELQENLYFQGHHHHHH
Assay [3] deals with GSK3b (Glycogen synthase kinase-3 beta) (Homo sapiens, UniProt P49841). In words: Assay 6 - GSK3b assay (ThermoFisher, FRET Z-Lyte). The format is biochemical. The note with it: geometric mean; ATP Conc: 10.000 μM; read-out: Assay 6 (GSK3B FRET-Z-Lyte CR) GMean IC50 (μM) ATP Conc: 10.000. How it is done: This assay measures the activity of the compounds at GSK3b (Glycogen synthase kinase-3 beta).
GSK3b (Glycogen synthase kinase-3 beta), sequence (P49841 whole entry): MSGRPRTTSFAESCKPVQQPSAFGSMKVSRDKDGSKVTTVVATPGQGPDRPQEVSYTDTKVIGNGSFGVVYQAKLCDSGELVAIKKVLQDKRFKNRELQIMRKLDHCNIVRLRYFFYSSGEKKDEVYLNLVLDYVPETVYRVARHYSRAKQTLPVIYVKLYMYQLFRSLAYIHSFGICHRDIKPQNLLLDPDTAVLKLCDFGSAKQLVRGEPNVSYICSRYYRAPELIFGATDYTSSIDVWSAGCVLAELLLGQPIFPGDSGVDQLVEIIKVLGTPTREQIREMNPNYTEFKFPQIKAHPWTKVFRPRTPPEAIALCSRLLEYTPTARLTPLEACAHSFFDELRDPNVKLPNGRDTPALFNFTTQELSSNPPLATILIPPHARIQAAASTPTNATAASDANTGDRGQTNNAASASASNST
The test compounds were screened in 1% DMSO (final) in the well. For 10-point titrations, 3-fold serial dilutions are conducted from the starting concentration of 10 μM.
• Bar-coded Corning, low volume NBS, black 384-well plate • 1. 2.5 μL—4× Test Compound or 100 nL 100× plus 2.4 μL kinase buffer • 2. 5 μL—2× Peptide/Kinase Mixture • 3. 2.5 μL—4× ATP Solution • 4. 30-second plate shake • 5. 60-minute Kinase Reaction incubation at room temperature • 6. 5 μL—Development Reagent Solution • 7. 30-second plate shake • 8. 60-minute Development Reaction incubation at room temperature • 9. Read on fluorescence plate reader and analyse the data
In step 2, the 2× GSK3β (GSK3 beta)/Ser/Thr (Glycogen synthase kinase-3 beta/Serine/Threonine) 09 mixture is prepared in 50 mM HEPES (4-(2-hydroxyethyl)-1-piperazineethanesulfonic acid) pH 7.5, 0.01% BRIJ-35, 10 mM MgCl2, 1 mM EGTA (egtazic acid). The final 10 μL Kinase Reaction consists of 0.22-0.92 ng GSK3β (GSK3 beta) and 2 μM Ser/Thr 09 in 50 mM HEPES pH 7.5, 0.01% BRIJ-35, 10 mM MgCl2, 1 mM EGTA.
In step 3 the ATP Solution is diluted to a 4× working concentration in Kinase Buffer (50 mM HEPES pH 7.5, 0.01% BRIJ-35, 10 mM MgCl2, 1 mM EGTA).
In Step 6 the Development Reagent is diluted 1:512 in Development Buffer (10× Novel PKC Lipid Mix: 2 mg/mL Phosphatidyl Serine, 0.2 mg/mL DAG in 20 mM HEPES, pH 7.4, 0.3% CHAPS).
SelectScreen® Kinase Profiling Service uses XLfit from IDBS. The dose response curve is curve fit to model number 205 (sigmoidal dose-response model).

Assay [4] has as its target T2, potassium ion channel hERG (human Ether-á-go-go-Related Gene) (Homo sapiens, UniProt Q12809).
T2 construct: expressed in transfected cells; host or cells: Chinese hamster ovary K1 (CHO)
In words: Assay 5 - hERG assay (SyncroPatch 384PE patch clamp, CHO cells). The format is cell-based. As to conditions: geometric mean, CHO cells over-expressing hERG, read-out: Assay 5 (hERG Hu CHO IF EPh CR-Syncro) GMean IC50. How it is done:
Assay 5—hERG Assay (Human Ether-á-go-go-Related Gene)
This assay (human Ether-á-go-go-Related Gene) measures activity of the compounds at the potassium ion channel hERG (human Ether-á-go-go-Related Gene).
Experiments were performed on the SyncroPatch 384PE high throughput patch clamp platform at room temperature and medium resistance chips with 4 patch holes per site. Chinese hamster ovary K1 (CHO) cell lines over-expressing the ion channel of choice (hERG) were used in assay-ready format and kept in liquid nitrogen or were used from live culture. Cells were either thawed and diluted in HBSS or were detached from flasks and resuspended in HBSS. HBSS comprised 140 mM NaCl, 4 mM KCl, 10 mM HEPES and 5 mM Glucose (pH 7.4). The internal patch clamp solution was KF 120 mM, KCl 20 mM, HEPES 10 mM, EGTA 10 mM, and 25 μM Escin (pH 7.2). After the sealing process was complete, the external solution was exchanged for external patch clamp solution comprising NaCl 80 mM, KCl 4 mM, HEPES 10 mM, CaCl2 2 mM, MgCl2 1 mM, glucose 5 mM, and NMDG 60 mM (pH 7.4). All solutions were stored at room temperature, except Escin, which was stored at 4° C. All test compounds were dispensed in greiner-bio 384 well plates and tested in a 6 point cumulative assay (final DMSO concentration 0.33%). Only wells that passed previously agreed acceptance criteria for this platform were used in this analysis (30 MegaOhm seal resistance, Z prime>0.4 and current size>0.2 nA).
In general terms: hERG is a cardiac potassium channel; its block is linked to QT prolongation.

T2 sequence (Q12809 whole entry): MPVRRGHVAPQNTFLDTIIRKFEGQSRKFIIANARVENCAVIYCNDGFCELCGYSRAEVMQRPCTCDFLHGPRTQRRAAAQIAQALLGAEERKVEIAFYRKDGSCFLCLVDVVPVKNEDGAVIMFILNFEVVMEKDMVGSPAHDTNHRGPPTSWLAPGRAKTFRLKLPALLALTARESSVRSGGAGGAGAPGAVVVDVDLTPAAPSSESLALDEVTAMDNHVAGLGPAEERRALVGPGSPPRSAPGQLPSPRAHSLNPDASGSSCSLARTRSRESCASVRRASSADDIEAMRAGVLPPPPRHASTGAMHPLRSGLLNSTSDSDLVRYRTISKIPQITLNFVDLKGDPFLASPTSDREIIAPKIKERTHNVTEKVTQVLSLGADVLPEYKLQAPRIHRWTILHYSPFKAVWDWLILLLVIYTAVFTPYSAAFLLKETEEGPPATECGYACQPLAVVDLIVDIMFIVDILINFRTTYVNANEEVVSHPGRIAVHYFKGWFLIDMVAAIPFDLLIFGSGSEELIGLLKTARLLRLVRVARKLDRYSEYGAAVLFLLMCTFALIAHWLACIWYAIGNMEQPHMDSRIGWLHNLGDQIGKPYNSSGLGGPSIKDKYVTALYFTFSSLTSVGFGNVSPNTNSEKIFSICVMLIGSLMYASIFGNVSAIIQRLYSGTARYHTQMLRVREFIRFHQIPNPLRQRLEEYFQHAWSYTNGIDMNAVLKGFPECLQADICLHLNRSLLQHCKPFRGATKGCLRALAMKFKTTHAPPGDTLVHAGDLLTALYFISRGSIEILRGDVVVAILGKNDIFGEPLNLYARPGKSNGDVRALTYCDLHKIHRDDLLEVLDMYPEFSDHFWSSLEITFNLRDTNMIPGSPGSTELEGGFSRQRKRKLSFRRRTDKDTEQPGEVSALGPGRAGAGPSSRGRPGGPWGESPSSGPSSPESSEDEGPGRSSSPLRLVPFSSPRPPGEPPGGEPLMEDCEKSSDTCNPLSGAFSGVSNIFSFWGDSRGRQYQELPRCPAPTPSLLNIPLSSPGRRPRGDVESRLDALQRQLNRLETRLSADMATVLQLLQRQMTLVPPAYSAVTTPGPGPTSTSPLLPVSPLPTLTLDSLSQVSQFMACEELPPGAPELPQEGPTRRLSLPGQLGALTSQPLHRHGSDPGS

As a reminder, the IC50 is the concentration at which inhibition is half-maximal. On to `O=c1c(C(F)(F)F)cccn1-c1ccc(N[C@H]2CC[C@H](Nc3nc4cccnc4[nH]3)C2)nc1` [Example 64, 6′-(((1S,3S)-3-((3H-Imidazo[4,5-b]pyridin-2-yl)amino)cyclopentyl)amino)-3-(trifluoromethyl)-2H-[1,3′-bipyridin]-2-one], for which the IC50 is 99 nM at PCSK9 [1], 1.7 nM against PCSK9 [2], > 10 µM in assay [3] and > 40000 nM in assay [4].

As for `CN1CC(=O)N(c2ccc(N[C@H]3CC[C@H](Nc4nc5cccnc5[nH]4)C3)nc2)C1=O` [Example 38, 3-(6-(((1S,3S)-3-((3H-Imidazo[4,5-b]pyridin-2-yl)amino)cyclopentyl)amino)pyridin-3-yl)-1-methylimidazolidine-2,4-dione], the IC50 at PCSK9 [1] was 158 nM; against PCSK9 [2] it was 5.7 nM; in assay [3], > 10 µM; in assay [4] it was > 40000 nM.

For `N#Cc1cccn(-c2ccc(N[C@H]3CC[C@H](Nc4nc5cccnc5s4)C3)nc2)c1=O` [Example 23, 2-Oxo-6′-(((1S,3S)-3-(thiazolo[5,4-b]pyridin-2-ylamino)cyclopentyl)amino)-2H-[1,3′-bipyridine]-3-carbonitrile], the half-maximal inhibitory concentration (IC50) on PCSK9 [1] is 92 nM; at PCSK9 [2], 1.2 nM; in assay [3], > 10 µM; in assay [4], 24600 nM.

With `O=c1c(OC(F)(F)F)cccn1-c1ccc(N[C@H]2CC[C@H](Nc3nc4cccnc4[nH]3)C2)nc1` [Example 63, 6′-(((1S,3S)-3-((3H-Imidazo[4,5-b]pyridin-2-yl)amino)cyclopentyl)amino)-3-(trifluoromethoxy)-2H-[1,3′-bipyridin]-2-one], the IC50 is 51 nM against PCSK9 [1], 2.1 nM at PCSK9 [2], > 10 µM in assay [3] and > 40000 nM in assay [4].

For `O=c1ccc(OC(F)F)cn1-c1ccc(N[C@H]2CC[C@H](Nc3nc4cccnc4s3)C2)nc1` [Example 77, 5-(Difluoromethoxy)-6′-(((1S,3S)-3-(thiazolo[5,4-b]pyridin-2-ylamino)cyclopentyl)amino)-2H-[1,3′-bipyridin]-2-one], the IC50 at PCSK9 [1] turned out to be 204 nM; against PCSK9 [2] it was 4.2 nM; in assay [3], 4.72 µM; in assay [4], 10400 nM.

On to `O=c1[nH]c2ccccc2n1-c1ccc(N[C@H]2CC[C@H](Nc3nc4cccnc4[nH]3)C2)nc1` [Example 35, 1-(6-(((1S,3S)-3-((3H-Imidazo[4,5-b]pyridin-2-yl)amino)cyclopentyl)amino)pyridin-3-yl)-1,3-dihydro-2H-benzo[d]imidazol-2-one], for which the concentration for half-maximal inhibition (IC50) on PCSK9 [1] stood at 108 nM; on PCSK9 [2], 0.7 nM; in assay [3], 7.61 µM; in assay [4], 27400 nM.

In the case of `O=c1ccccn1-c1ccc(N[C@H]2CC[C@H](Nc3nc4cc(Cl)cnc4[nH]3)C2)nc1` [Example 47, 6′-(((1S,3S)-3-((6-Chloro-3H-imidazo[4,5-b]pyridin-2-yl)amino)cyclopentyl)amino)-2H-[1,3′-bipyridin]-2-one], the half-inhibitory concentration (IC50) is 64 nM against PCSK9 [1], 1.6 nM against PCSK9 [2], 0.331 µM in assay [3] and > 40000 nM in assay [4].

Consider `O=c1c(Cl)cccn1-c1ccc(N[C@H]2CC[C@H](Nc3nc4cccnc4o3)C2)nc1` [Example 16, 3-Chloro-6′-(((1S,3S)-3-(oxazolo[5,4-b]pyridin-2-ylamino)cyclopentyl)amino)-2H-[1,3′-bipyridin]-2-one], for which the IC50 is 81 nM on PCSK9 [1], 1.6 nM at PCSK9 [2], > 10 µM in assay [3] and 28400 nM in assay [4].

Turning to `O=c1ccc(-c2nn[nH]n2)cn1-c1ccc(N[C@H]2CC[C@H](Nc3nc4cccnc4[nH]3)C2)nc1` [Example 86, 6′-(((1S,3S)-3-((3H-Imidazo[4,5-b]pyridin-2-yl)amino)cyclopentyl)amino)-5-(2H-tetrazol-5-yl)-2H-[1,3′-bipyridin]-2-one], the 50% inhibitory concentration (IC50) worked out at 187 nM at PCSK9 [1] and 3.5 nM against PCSK9 [2].

As for `O=c1ccncn1-c1ccc(N[C@H]2CC[C@H](Nc3nc4cccnc4[nH]3)C2)nc1` [Example 29, 3-(6-(((1S,3S)-3-((3H-Imidazo[4,5-b]pyridin-2-yl)amino)cyclopentyl)amino)pyridin-3-yl)pyrimidin-4(3H)-one], the IC50 is 68 nM on PCSK9 [1], 5.7 nM at PCSK9 [2], > 10 µM in assay [3] and > 40000 nM in assay [4].

Consider `O=c1ccccn1-c1ccc(N[C@H]2CC[C@H](Nc3nc4cc(CO)ccc4s3)C2)nc1` [Example 84, 6′-(((1S,3S)-3-((5-(Hydroxymethyl)benzo[d]thiazol-2-yl)amino)cyclopentyl)amino)-2H-[1,3′-bipyridin]-2-one], for which the IC50 against PCSK9 [2] is 239 nM; in assay [3] it was > 10 µM; in assay [4], > 40100 nM.

On to `O=c1ccccn1-c1ccc(N[C@H]2CC[C@H](Nc3nc4ncccc4o3)C2)nc1` [Compound 89, 6′-(((1S,3S)-3-(Oxazolo[4,5-b]pyridin-2-ylamino)cyclopentyl)amino)-2H-[1,3′-bipyridin]-2-one], for which the concentration for half-maximal inhibition (IC50) at PCSK9 [2] is 259 nM; in assay [3] it was > 10 µM; in assay [4] it was > 40100 nM.

As to `O=c1ccccn1-c1ccc(N[C@H]2CC[C@H](Nc3nc4ccccc4o3)C2)nc1` [Example 1, 6′-(((1S,3S)-3-(Benzo[d]oxazol-2-ylamino)cyclopentyl)amino)-2H-[1,3′-bipyridin]-2-one], the results for the IC50 (against PCSK9 [2]; in assay [3]; in assay [4]) were 34.3 nM, > 10 µM and > 40000 nM, respectively.

Consider `O=c1ccccn1-c1ccc(N[C@H]2CC[C@H](Nc3nc4ccc(Br)cc4o3)C2)nc1` [Example 3, 6′-(((1S,3S)-3-((6-Bromobenzo[d]oxazol-2-yl)amino)cyclopentyl)amino)-2H-[1,3′-bipyridin]-2-one], for which the half-maximal inhibitory concentration (IC50) at PCSK9 [2] was 8.2 nM; in assay [3], > 10 µM; in assay [4], 4200 nM.

As for `O=c1ccccn1-c1ccc(N[C@H]2CC[C@H](Nc3nc4ccc(Br)cc4s3)C2)nc1` [Example 6, 6′-(((1S,3S)-3-((6-Bromobenzo[d]thiazol-2-yl)amino)cyclopentyl)amino)-2H-[1,3′-bipyridin]-2-one], the concentration for half-maximal inhibition (IC50) at PCSK9 [2] is 2730 nM; in assay [3], > 10 µM; in assay [4], 2640 nM.

Regarding `O=c1ccccn1-c1ccc(N[C@H]2CC[C@H](Nc3nc4cccnc4[nH]3)C2)cc1` [Example 74, 1-(4-(((1S,3S)-3-((3H-Imidazo[4,5-b]pyridin-2-yl)amino)cyclopentyl)amino)phenyl)pyridin-2(1H)-one], the IC50 against PCSK9 [2] is 173 nM; in assay [3] it was > 10 µM; in assay [4], > 40000 nM.

As to `COc1ccccc1-c1ccc(N[C@H]2CC[C@H](Nc3nc4cccnc4[nH]3)C2)nc1` [Example 66, (1S,3S)—N^1-(3H-Imidazo[4,5-b]pyridin-2-yl)-N^3-(5-(2-methoxyphenyl)pyridin-2-yl)cyclopentane-1,3-diamine], the IC50 is 166 nM against PCSK9 [2], > 10 µM in assay [3] and 1940 nM in assay [4].

Turning to `O=c1ccccn1-c1ccc(N[C@H]2CC[C@H](Nc3nc4cc(C5CC5)cnc4[nH]3)C2)nc1` [Example 55, 6′-(((1S,3S)-3-((6-Cyclopropyl-3H-imidazo[4,5-b]pyridin-2-yl)amino)cyclopentyl)amino)-2H-[1,3′-bipyridin]-2-one], the half-inhibitory concentration (IC50) was 2.6 nM on PCSK9 [2], 1.77 µM in assay [3] and > 40000 nM in assay [4].
